14 molecules from ChEMBL document CHEMBL1208771, “Improvement of both plasmepsin inhibitory activity and antimalarial activity by 2-aminoethylamino substitution” (Bioorg Med Chem Lett, 2010) can be followed below.

The term EC50 denotes the concentration giving half of the maximal effect. A higher EC50 goes with a need for much substance. By Ki is commonly meant the dissociation constant of the complex between target and ligand, obtained from inhibition or displacement. Read a high Ki as a looser hold on the target.

The test system of test [1] is Plasmodium falciparum. Nature of the test: Antiplasmodial activity against Plasmodium falciparum D6 infected in human erythrocytes by SYBR green I fluorescence assay. Format: functional, organism-based.
In test [2] the target is Plasmepsin II (Plasmodium falciparum, UniProt P46925). Nature of the test: Inhibition of Plasmodium falciparum plasmepsin-2.
In test [3] the test system is Plasmodium falciparum. Nature of the test: Ratio of compound EC50 to chloroquine EC50 for Plasmodium falciparum D6 infected in human erythrocytes. Format: functional.

Chain of Plasmepsin II (P46925 whole entry): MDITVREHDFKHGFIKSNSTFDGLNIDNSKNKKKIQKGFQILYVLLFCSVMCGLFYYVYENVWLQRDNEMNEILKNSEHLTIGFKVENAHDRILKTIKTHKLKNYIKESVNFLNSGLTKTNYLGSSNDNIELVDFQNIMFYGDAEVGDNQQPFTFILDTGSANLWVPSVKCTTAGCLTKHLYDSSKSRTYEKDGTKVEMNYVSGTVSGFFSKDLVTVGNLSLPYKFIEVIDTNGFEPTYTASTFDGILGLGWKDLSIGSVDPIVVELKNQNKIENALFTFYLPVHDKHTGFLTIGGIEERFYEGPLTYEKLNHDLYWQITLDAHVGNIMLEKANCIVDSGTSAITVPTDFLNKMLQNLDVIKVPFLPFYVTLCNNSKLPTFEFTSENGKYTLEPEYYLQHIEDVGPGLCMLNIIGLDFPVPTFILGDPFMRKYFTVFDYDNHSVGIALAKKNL

Consider `Cc1cc(N(C)CCN(C)C)cc(C)c1OCC(=O)N[C@@H](Cc1ccccc1)[C@H](O)C(=O)N1CSC(C)(C)[C@H]1C(=O)N[C@H]1c2ccccc2C[C@H]1O`, for which the concentration giving a half-maximal response (EC50) in test [1] amounted to 360 nM. Besides, in test [2], the Ki is under 0.1 nM.
The corresponding values for `CNCCNc1cc(C)c(OCC(=O)N[C@@H](Cc2ccccc2)[C@H](O)C(=O)N2CSC(C)(C)[C@H]2C(=O)N[C@H]2c3ccccc3C[C@H]2O)c(C)c1` are 1400 nM and 9.1 nM.
The corresponding values for `Cc1cc(NCCN(C)C)cc(C)c1OCC(=O)N[C@@H](Cc1ccccc1)[C@H](O)C(=O)N1CSC(C)(C)[C@H]1C(=O)N[C@H]1c2ccccc2C[C@H]1O` are 2000 nM and 17 nM.
On to `Cc1cccc(C)c1OCC(=O)N[C@@H](Cc1ccccc1)[C@H](O)C(=O)N1CSC(C)(C)[C@H]1C(=O)N[C@H]1c2ccccc2C[C@H]1O`, for which a half-maximal response in test [1] (EC50) required 5000 nM.
The molecule `Cc1cc(N(C)CCN)cc(C)c1OCC(=O)N[C@@H](Cc1ccccc1)[C@H](O)C(=O)N1CSC(C)(C)[C@H]1C(=O)N[C@H]1c2ccccc2C[C@H]1O` yielded an EC50 in test [1] of 1400 nM. In test [2], the affinity corresponds to a Ki of 8.5 nM.
In turn, `CCN(CC)CCNc1cc(C)c(OCC(=O)N[C@@H](Cc2ccccc2)[C@H](O)C(=O)N2CSC(C)(C)[C@H]2C(=O)N[C@H]2c3ccccc3C[C@H]2O)c(C)c1` yielded an EC50 in test [1] of 1600 nM. The Ki in test [2] amounted to 5.1 nM.
As for `Cc1cc(NCc2ccccn2)cc(C)c1OCC(=O)N[C@@H](Cc1ccccc1)[C@H](O)C(=O)N1CSC(C)(C)[C@H]1C(=O)N[C@H]1c2ccccc2C[C@H]1O`, in test [1], the EC50 came to 560 nM. This counts as sub-micromolar.
As for `Cc1cc(NCCN)cc(C)c1OCC(=O)N[C@@H](Cc1ccccc1)[C@H](O)C(=O)N1CSC(C)(C)[C@H]1C(=O)N[C@H]1c2ccccc2C[C@H]1O`, it took 290 nM to reach a half-maximal effect in test [1] (EC50). The molecule also displayed an inhibition constant Ki in test [2] of 6.5 nM.
As for `CCNCCN(CC)c1cc(C)c(OCC(=O)N[C@@H](Cc2ccccc2)[C@H](O)C(=O)N2CSC(C)(C)[C@H]2C(=O)N[C@H]2c3ccccc3C[C@H]2O)c(C)c1`, in test [1], a half-maximal response (EC50) required 790 nM. The molecule also registered a Ki in test [2] of 4.2 nM.
With `CNCCN(C)c1cc(C)c(OCC(=O)N[C@@H](Cc2ccccc2)[C@H](O)C(=O)N2CSC(C)(C)[C@H]2C(=O)N[C@H]2c3ccccc3C[C@H]2O)c(C)c1`, the midpoint of the response in test [1], the EC50, lay at 190 nM. Also, the Ki in test [2] was 1.2 nM. Moreover, in test [3], the “Ratio EC50” value came out at 10.
Molecule `CCN(CC)CCN(CC)c1cc(C)c(OCC(=O)N[C@@H](Cc2ccccc2)[C@H](O)C(=O)N2CSC(C)(C)[C@H]2C(=O)N[C@H]2c3ccccc3C[C@H]2O)c(C)c1` showed an EC50 in test [1] of 1100 nM. Besides, the affinity in test [2] corresponds to a Ki of 10 nM.
The corresponding values for `CCNCCNc1cc(C)c(OCC(=O)N[C@@H](Cc2ccccc2)[C@H](O)C(=O)N2CSC(C)(C)[C@H]2C(=O)N[C@H]2c3ccccc3C[C@H]2O)c(C)c1` are 220 nM and 0.68 nM.
As to `CCN(CC)CCCC(C)Nc1ccnc2cc(Cl)ccc12` (stereo unspecified) [CHLOROQUINE], in test [1], the 50% effective concentration (EC50) came out at 20 nM. That is a double-digit nanomolar value.
Take `CCN(CCN)c1cc(C)c(OCC(=O)N[C@@H](Cc2ccccc2)[C@H](O)C(=O)N2CSC(C)(C)[C@H]2C(=O)N[C@H]2c3ccccc3C[C@H]2O)c(C)c1`: the midpoint of the response in test [1], the EC50, lay at 460 nM. In test [2], this molecule yielded a Ki of under 0.1 nM.
